What all share (assay): NCI anticancer screen, dose series, 48 h
Assay [1] deals with EKVX NSCLC.
In assay [2] the test system is HCC-2998 colon.
The subject of assay [3] is M14 melanoma.
The subject of assay [4] is NCI-H23 lung.
Assay [5] relates to OVCAR-5 ovarian.
Assay [6] relates to SF-539 CNS.
Assay [7] deals with SK-MEL-5 melanoma.
The test system of assay [8] is SNB-75 CNS.
Assay [9] concerns UO-31 renal.
Assay [10] relates to HS 578T breast.

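1) Cells in 96-well plates. 2) Compound, 48 h, 5 concentrations. 3) Linear interpolation between surrounding doses. 4) Unreached endpoint = highest concentration. Definition used: TGI = concentration required for complete inhibition of growth.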

For the compound `O=C1CSC(c2c[nH]c3ccccc23)N1c1ccc(Cl)cc1Cl` (configuration not stated), the TGI in assay [1], in [2], in assay [3], in assay [4], in assay [5] and in assay [6] was > 100 µM each time. Further, the TGI in [7], in assay [8] and in assay [9] was > 100 µM each time.
For the compound `COc1ccc(-c2cc3cc(Cl)cc(Cl)c3oc2=O)cc1OC`, the TGI in [1] was > 100 µM; in assay [2] it was > 100 µM; in assay [10], 76.1 µM; in assay [3], > 100 µM; in assay [4] it was > 100 µM; in assay [5] it was > 100 µM. Further, the TGI in assay [6], in [7] and in assay [9] was > 100 µM in each case.
On to `CSc1ncc2c(n1)-c1ccccc1OC2NC1CC1` (configuration not stated), for which the TGI in assay [1], in assay [10], in assay [3], in assay [4], in assay [5] and in [6] was > 100 µM each time. Also, the TGI in assay [7], in assay [8] and in [9] was > 100 µM each time.
Consider `CN1C2=Nc3n(c4ccccc4[n+]3C)CN2c2ccccc21`, for which the TGI in [1] is > 100 µM; in assay [10], 90.8 µM; in assay [3], > 100 µM; in [4], > 100 µM; in [5], > 100 µM; in assay [6], > 100 µM. The TGI is 27.8 µM in assay [7] and > 100 µM in assay [9].
Regarding `CCCn1cc2c3c(cccc31)C1C=C(C)CN(C)C1C2` (configuration not stated), the TGI in assay [1] is 48 µM; in [2] it was 38 µM; in [4], 61.8 µM; in [5], 57 µM; in assay [6], 59.5 µM; in [7], 38.3 µM. Also, the TGI in assay [8] was determined as 39.3 µM; in [9], 38.8 µM.
In the case of `CSc1nc(=O)c2nc(-c3cccs3)c(-c3cccs3)nc2n1C`, the TGI in [1], in assay [2], in [10], in [3], in [4] and in assay [5] was > 100 µM in each case. For the same compound, the TGI in [7] was > 100 µM; in assay [8], 49.6 µM; in [9], > 100 µM.
For the compound `CCC1([N+](=O)[O-])CN(N=O)C1`, the TGI in assay [1], in [10], in [3], in assay [4], in [5] and in assay [6] was > 100 µM in each case. Further, the TGI in [7], in [8] and in [9] was > 100 µM in each case.
For the compound `C=C(C)[C@H]1CC23C(=O)[C@@](C)(C[C@H]2C1(C)C)C(=O)C(C(=O)C(C)C)=C3O`, the TGI worked out at 28.8 µM in assay [1]; 58.1 µM in assay [10]; 31.4 µM in assay [3]; 43 µM in assay [4]; 40.8 µM in assay [5]; 31.5 µM in assay [7]. For the same compound, the TGI in assay [9] worked out at 39.2 µM.
For the compound `CC1=C(C(=O)OCCO[N+](=O)[O-])C(c2ccccc2[N+](=O)[O-])C(C(=O)OC(C)C)=C(C)N1` (configuration not stated), the TGI worked out at 53 µM in [1]; 29.5 µM in assay [2]; 41.2 µM in assay [10]; 29.3 µM in assay [3]; 48.5 µM in assay [4]; 30.4 µM in assay [5]. The TGI amounted to 33.2 µM in assay [6], 26.8 µM in assay [7] and 26.2 µM in assay [9].
Regarding `CN(C)/N=N/c1nc2c(c(=O)n(C)c(=O)n2C)n1CC1CO1` (configuration not stated), the TGI was 57.9 µM in assay [1]; 25.3 µM in [2]; 32.6 µM in assay [3]; 25.1 µM in [4]; > 100 µM in [5]; 22.5 µM in assay [6]. The figures for the TGI in assay [7], in assay [8] and in [9] were 25.5 µM, 43.6 µM and 31.3 µM, respectively.
As for `O=C(NC(C(F)(F)F)(C(F)(F)F)P(=O)(Cc1ccccc1)Cc1ccccc1)C(C(F)(F)F)C(F)(F)F`, the TGI in assay [1] was 58.9 µM; in [2] it was 49.8 µM; in assay [10] it was > 100 µM; in assay [3], 34.8 µM; in assay [4], 40.8 µM; in assay [5] it was 41.8 µM. In addition, the TGI in assay [6] turned out to be 43.6 µM; in assay [7], 29.1 µM.
On to `N#Cc1c(-c2ccc([N+](=O)[O-])cc2)c(C#N)c(=O)n(NS(=O)(=O)c2ccccc2)c1O`, for which the TGI in assay [1], in assay [2], in assay [3], in assay [5], in [6] and in assay [7] was > 100 µM throughout.
With `c1cncc(CSc2nc3ccccc3nc2-c2cccs2)c1`, the TGI in assay [1], in [2], in [3], in [4], in assay [5] and in [6] was > 100 µM each time. The TGI in assay [7], in assay [8] and in assay [9] was > 100 µM each time.
In the case of `C=C1[C@@H]2CCC3[C@]4(C)C(CC[C@@]5(C)C(=O)O[C@H](O)[C@@H]45)[C@H](O)[C@]3(C2)[C@H]1OC1OC(CO)C(O)C(O)C1O` (some centres not stated), the TGI in [1], in assay [10], in [3], in [4], in assay [5] and in assay [6] was > 50 µM each time. Besides, the TGI in assay [7], in [8] and in assay [9] was > 50 µM throughout.
Regarding `O=C(c1ccco1)N(C(=O)N1CCC(c2ccccc2)CC1)c1ccccc1`, the TGI in assay [1], in [10], in assay [3], in [4], in [5] and in [6] was > 100 µM each time. The TGI in assay [7] is 51.5 µM; in [8], 46.2 µM; in assay [9], 83.8 µM.

For the origin of these results see PubChem BioAssay (NCI).
